These results are taken from US20230348442A1, “GALECTIN-3 INHIBITING 2-HYDROXYCYCLOALKANE-1-CARBAMOYL DERIVATIVES” (Idorsia Pharmaceuticals Ltd, priority 2020, published 2023).

Chain of human Gal-3 (hGal-3) (P17931 whole entry): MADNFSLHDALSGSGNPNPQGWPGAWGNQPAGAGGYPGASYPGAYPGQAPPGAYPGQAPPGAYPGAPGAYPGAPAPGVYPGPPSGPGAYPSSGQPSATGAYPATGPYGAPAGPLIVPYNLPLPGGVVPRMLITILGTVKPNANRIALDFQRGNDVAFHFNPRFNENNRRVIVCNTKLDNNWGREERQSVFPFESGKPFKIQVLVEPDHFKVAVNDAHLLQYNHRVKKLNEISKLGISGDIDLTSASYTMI

The test concerns the target human Gal-3 (hGal-3) (Homo sapiens (Human), UniProt P17931). Briefly: competitive binding assay: binding of biotinylated hGal-3 to microplate-adsorbed asialofetuin (ASF), spectrophotometric. As to conditions: Activity on hGal-3; mean values of several measurements. A digest of the protocol: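 Compounds diluted in DMSO competed with biotinylated hGal-3 or hGal-1 (300-1000 ng/mL) for binding to plate-adsorbed asialofetuin for 3 h at 4° C. Bound galectin was detected with streptavidin-peroxidase (80 ng/mL, 1 h, 4° C) and ABTS substrate; IC50 reported as mean of several measurements.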
A word on the IC50: it is the point on the concentration scale where inhibition reaches its midpoint. Low readings indicate inhibition by little substance, high ones a need for much substance. In the case of `CO[C@@H]1[C@@H](n2cc(-c3cc(F)c(F)c(Cl)c3)nn2)[C@@H](O)[C@@H](CO)O[C@H]1C(=O)N(c1cc(Cl)cc(C#N)c1)[C@H]1CC[C@@H]1O` [Example 2.7.4, (2R,3R,4S,5R,6R)-4-(4-(3-chloro-4,5-difluorophenyl)-1H-1,2,3-triazol-1-yl)-N-(3-chloro-5-cyanophenyl)-5-hydroxy-N-((1S,2S)-2-hydroxycyclobutyl)-6-(hydroxymethyl)-3-methoxytetrahydro-2H-pyran-2-carboxamide], the 50% inhibitory concentration (IC50) stood at 78.6 nM.
For `CO[C@@H]1[C@@H](n2cc(-c3cc(F)c(Br)c(F)c3)nn2)[C@@H](O)[C@@H](CO)O[C@H]1C(=O)N(c1cc(Br)cc(C#N)c1)[C@@H]1CC[C@H]1O` [Example 2.6.5R, (2R,3R,4S,5R,6R)-4-(4-(4-bromo-3,5-difluorophenyl)-1H-1,2,3-triazol-1-yl)-N-(3-bromo-5-cyanophenyl)-5-hydroxy-N-((1R,2R)-2-hydroxycyclobutyl)-6-(hydroxymethyl)-3-methoxytetrahydro-2H-pyran-2-carboxamide] the value was 303 nM; for `CO[C@@H]1[C@@H](n2cc(-c3ccc(Br)cc3)nn2)[C@@H](O)[C@@H](CO)O[C@H]1C(=O)N(c1cc(Cl)cc(C#N)c1)[C@H]1CCC[C@@H]1O` [Example 1.19.4, (2R,3R,4S,5R,6R)-4-(4-(4-bromophenyl)-1H-1,2,3-triazol-1-yl)-N-(3-chloro-5-cyanophenyl)-5-hydroxy-N-((1S,2S)-2-hydroxycyclopentyl)-6-(hydroxymethyl)-3-methoxytetrahydro-2H-pyran-2-carboxamide], 163 nM; for `CC(=O)O[C@@H]1[C@@H](n2cc(-c3cc(F)c(C)c(F)c3)nn2)[C@@H](O)[C@@H](CO)O[C@H]1C(=O)N(c1cc(Cl)cc(C#N)c1)[C@H]1CCC[C@@H]1O` [Example 1A.4.4, (2R,3R,4S,5R,6R)-2-((3-chloro-5-cyanophenyl)((1S,2S)-2-hydroxycyclopentyl)carbamoyl)-4-(4-(3,5-difluoro-4-methylphenyl)-1H-1,2,3-triazol-1-yl)-5-hydroxy-6-(hydroxymethyl)tetrahydro-2H-pyran-3-yl acetate], 26.8 nM.
`CO[C@@H]1[C@@H](n2cc(-c3ccc(C)c(F)c3F)nn2)[C@@H](O)[C@@H](CO)O[C@H]1C(=O)N(c1cc(Br)cc(C#N)c1)[C@H]1CCC[C@@H]1O` [Example 1.11.5, (2R,3R,4S,5R,6R)-N-(3-bromo-5-cyanophenyl)-4-(4-(2,3-difluoro-4-methylphenyl)-1H-1,2,3-triazol-1-yl)-5-hydroxy-N-((1S,2S)-2-hydroxycyclopentyl)-6-(hydroxymethyl)-3-methoxytetrahydro-2H-pyran-2-carboxamide] had a 50% inhibitory concentration (IC50) of 14.9 nM.
For `O=C([C@@H]1O[C@H](CO)[C@H](O)[C@H](n2cc(-c3cc(F)c(F)c(F)c3)nn2)[C@H]1O)N(c1cc(Cl)cc(Cl)c1)[C@H]1CC[C@@H]1O` [Example 2H.1.2, (2R,3R,4S,5R,6R)-N-(3,5-dichlorophenyl)-3,5-dihydroxy-N-((1S,2S)-2-hydroxycyclobutyl)-6-(hydroxymethyl)-4-(4-(3,4,5-trifluorophenyl)-1H-1,2,3-triazol-1-yl)tetrahydro-2H-pyran-2-carboxamide] the value was 67.5 nM.
With `CO[C@@H]1[C@@H](n2cc(-c3cc(F)c(F)c(F)c3)nn2)[C@@H](O)[C@@H](CO)O[C@H]1C(=O)N(c1cccc(Br)c1)[C@@H]1CCC[C@H]1O` [Example 1.1.10R, (2R,3R,4S,5R,6R)-N-(3-bromophenyl)-5-hydroxy-N-((1R,2R)-2-hydroxycyclopentyl)-6-(hydroxymethyl)-3-methoxy-4-(4-(3,4,5-trifluorophenyl)-1H-1,2,3-triazol-1-yl)tetrahydro-2H-pyran-2-carboxamide] the figure was 376 nM.
In turn, `CO[C@@H]1[C@@H](n2cc(-c3cc(F)c(F)c(F)c3)nn2)[C@@H](O)[C@@H](CO)O[C@H]1C(=O)N(c1cccc(Br)c1)[C@H]1CC[C@@H]1O` [Example 2.1.10, (2R,3R,4S,5R,6R)-N-(3-bromophenyl)-5-hydroxy-N-((1S,2S)-2-hydroxycyclobutyl)-6-(hydroxymethyl)-3-methoxy-4-(4-(3,4,5-trifluorophenyl)-1H-1,2,3-triazol-1-yl)tetrahydro-2H-pyran-2-carboxamide] gave a half-inhibitory concentration (IC50) of 108 nM.
For `COc1cc(-c2cn([C@H]3[C@@H](O)[C@@H](CO)O[C@@H](C(=O)N(c4cc(C)cc(Br)c4)[C@H]4CC[C@@H]4O)[C@@H]3OC)nn2)cc(F)c1F` [Example 2.3.12, (2R,3R,4S,5R,6R)-N-(3-bromo-5-methylphenyl)-4-(4-(3,4-difluoro-5-methoxyphenyl)-1H-1,2,3-triazol-1-yl)-5-hydroxy-N-((1S,2S)-2-hydroxycyclobutyl)-6-(hydroxymethyl)-3-methoxytetrahydro-2H-pyran-2-carboxamide] the value was 116 nM.
With `CO[C@@H]1[C@@H](n2cc(-c3cc(F)c(F)c(Cl)c3)nn2)[C@@H](O)[C@@H](CO)O[C@H]1C(=O)N(c1cc(Cl)cc(C#N)c1)[C@@H]1CCC[C@H]1O` [Example 1.7.4R, (2R,3R,4S,5R,6R)-4-(4-(3-chloro-4,5-difluorophenyl)-1H-1,2,3-triazol-1-yl)-N-(3-chloro-5-cyanophenyl)-5-hydroxy-N-((1R,2R)-2-hydroxycyclopentyl)-6-(hydroxymethyl)-3-methoxytetrahydro-2H-pyran-2-carboxamide] the figure was 103 nM; with `CO[C@@H]1[C@@H](n2cc(-c3ccc(Br)c(F)c3F)nn2)[C@@H](O)[C@@H](CO)O[C@H]1C(=O)N(c1cc(F)cc(C#N)c1)[C@H]1CC[C@@H]1O` [Example 2.12.7, (2R,3R,4S,5R,6R)-4-(4-(4-bromo-2,3-difluorophenyl)-1H-1,2,3-triazol-1-yl)-N-(3-cyano-5-fluorophenyl)-5-hydroxy-N-((1S,2S)-2-hydroxycyclobutyl)-6-(hydroxymethyl)-3-methoxytetrahydro-2H-pyran-2-carboxamide], 48 nM.
With `CO[C@@H]1[C@@H](n2cc(-c3cc(F)cc(Br)c3)nn2)[C@@H](O)[C@@H](CO)O[C@H]1C(=O)N(c1cc(C)cc(C#N)c1)[C@H]1CCC[C@@H]1O` [Example 1.10.8, (2R,3R,4S,5R,6R)-4-(4-(3-bromo-5-fluorophenyl)-1H-1,2,3-triazol-1-yl)-N-(3-cyano-5-methylphenyl)-5-hydroxy-N-((1S,2S)-2-hydroxycyclopentyl)-6-(hydroxymethyl)-3-methoxytetrahydro-2H-pyran-2-carboxamide] the figure was 157 nM; with `CO[C@@H]1[C@@H](n2cc(-c3cc(F)c(F)c(Cl)c3)nn2)[C@@H](O)[C@@H](CO)O[C@H]1C(=O)N(c1cc(Cl)cc(C#N)c1)[C@H]1CCC[C@@H]1O` [Example 1.7.4, (2R,3R,4S,5R,6R)-4-(4-(3-chloro-4,5-difluorophenyl)-1H-1,2,3-triazol-1-yl)-N-(3-chloro-5-cyanophenyl)-5-hydroxy-N-((1S,2S)-2-hydroxycyclopentyl)-6-(hydroxymethyl)-3-methoxytetrahydro-2H-pyran-2-carboxamide], 33.4 nM.
In turn, `CO[C@@H]1[C@@H](n2cc(-c3cc(F)c(F)c(F)c3)nn2)[C@@H](O)[C@@H](CO)O[C@H]1C(=O)N(c1cc(C)cc(Br)c1)[C@@H]1CC[C@H]1O` [Example 2.1.12R, (2R,3R,4S,5R,6R)-N-(3-bromo-5-methylphenyl)-5-hydroxy-N-((1R,2R)-2-hydroxycyclobutyl)-6-(hydroxymethyl)-3-methoxy-4-(4-(3,4,5-trifluorophenyl)-1H-1,2,3-triazol-1-yl)tetrahydro-2H-pyran-2-carboxamide] showed an IC50 of 220 nM.
Compound `CO[C@@H]1[C@@H](n2cc(-c3ccc(C)c(F)c3F)nn2)[C@@H](O)[C@@H](CO)O[C@H]1C(=O)N(c1cc(Cl)cc(C#N)c1)[C@@H]1CCC[C@H]1O` [Example 1.11.4R, (2R,3R,4S,5R,6R)-N-(3-chloro-5-cyanophenyl)-4-(4-(2,3-difluoro-4-methylphenyl)-1H-1,2,3-triazol-1-yl)-5-hydroxy-N-((1R,2R)-2-hydroxycyclopentyl)-6-(hydroxymethyl)-3-methoxytetrahydro-2H-pyran-2-carboxamide] returned a half-maximal inhibitory concentration (IC50) of 53.9 nM.
In the case of `CO[C@@H]1[C@@H](n2cc(-c3ccc(C)c(F)c3F)nn2)[C@@H](O)[C@@H](CO)O[C@H]1C(=O)N(c1cc(Cl)cc(Cl)c1)[C@H]1CCC[C@@H]1O` [Example 1.11.2, (2R,3R,4S,5R,6R)-N-(3,5-dichlorophenyl)-4-(4-(2,3-difluoro-4-methylphenyl)-1H-1,2,3-triazol-1-yl)-5-hydroxy-N-((1S,2S)-2-hydroxycyclopentyl)-6-(hydroxymethyl)-3-methoxytetrahydro-2H-pyran-2-carboxamide], the IC50 is 15.1 nM.
With `CO[C@@H]1[C@@H](n2cc(-c3cc(F)c(F)c(F)c3)nn2)[C@@H](O)[C@@H](CO)O[C@H]1C(=O)N(c1cc(Br)cc(Br)c1)[C@@H]1CCC[C@H]1O` [Example 1.1.11R, (2R,3R,4S,5R,6R)-N-(3,5-dibromophenyl)-5-hydroxy-N-((1R,2R)-2-hydroxycyclopentyl)-6-(hydroxymethyl)-3-methoxy-4-(4-(3,4,5-trifluorophenyl)-1H-1,2,3-triazol-1-yl)tetrahydro-2H-pyran-2-carboxamide] the figure was 390 nM; with `COc1cc(C#N)cc(N(C(=O)[C@@H]2O[C@H](CO)[C@H](O)[C@H](n3cc(-c4cc(F)cc(Br)c4)nn3)[C@H]2OC)[C@H]2CCC[C@@H]2O)c1` [Example 1.10.9, (2R,3R,4S,5R,6R)-4-(4-(3-bromo-5-fluorophenyl)-1H-1,2,3-triazol-1-yl)-N-(3-cyano-5-methoxyphenyl)-5-hydroxy-N-((1S,2S)-2-hydroxycyclopentyl)-6-(hydroxymethyl)-3-methoxytetrahydro-2H-pyran-2-carboxamide], 174 nM.
